Read-outs that look alike come from different tables or passages of the source.
Assays:
[1] = target: Fasciola hepatica TIM (FhTIM) (Fasciola hepatica, UniProt S4UI50); experiment: Inhibition of recombinant FhTIM, coupled enzyme assay; type: biochemical
Outline: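 E. coli-expressed FhTIM preincubated with compound 1 h at 37 °C in 100 mM triethanolamine, 10 mM EDTA, pH 7.4, 10% DMSO. Aliquot diluted into coupled assay (1 mM glyceraldehyde-3-phosphate, 0.2 mM NADH, α-glycerol phosphate dehydrogenase, pH 7.4) with NADH decrease at 340 nm, 38 °C. Triplicate, two independent experiments.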

FhTIM = FhTIM (Fasciola hepatica, UniProt S4UI50); experiment: Microscale thermophoresis (MST) binding to FhTIM
FhTIM, sequence (S4UI50 entry or part of it): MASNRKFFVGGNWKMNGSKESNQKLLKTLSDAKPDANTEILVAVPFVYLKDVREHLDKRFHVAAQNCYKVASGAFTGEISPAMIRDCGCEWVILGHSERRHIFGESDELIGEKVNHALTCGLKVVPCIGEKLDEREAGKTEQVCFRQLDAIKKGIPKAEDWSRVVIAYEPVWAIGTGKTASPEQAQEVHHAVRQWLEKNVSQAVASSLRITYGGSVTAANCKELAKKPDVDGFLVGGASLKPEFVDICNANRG
Protocol: MST experiments were performed according to the NanoTemper technologies protocol in a Monolith NT.115 (red/blue) instrument (NanoTemper Technologies, München, Germany[36]). With this technique, the diffusion behavior of a labeled protein is measured when an infrared light excites the movement of the protein in capillaries. This behavior is the combination of two effects: the fast, local environment-dependent responses of the fluorophore to the temperature jump and the slower diffusive thermophoresis fluorescence changes. It will be modified when the protein is complexed with increasing amounts of unlabeled partners, leading to titration curves that can be fit for Kd estimation. In practice, FhTIM was labeled with the Monolith His-Tag Labeling Kit RED-tris-NTA (NanoTemper Technologies, München, Germany), as described by the manufacturer. The experiments were performed using 20% and 40% MST power and between 20–80% LED power at 24 °C. The MST traces were recorded using the standard parameters: 5 s MST power off, 30 s MST power on, and 5 s MST power off. The compounds were used at high concentrations (around 5 mM) in the bindings check assay with DMSO at 5% v/v. If the binding check was positive, then the affinity determination was performed with the same experimental settings, with serial 2x dilutions of the compound of interest.

human (HsTIM) = target: T1, human (HsTIM) (Homo sapiens, UniProt P60174); experiment: Selectivity assay, inhibition of HsTIM; type: biochemical; settings: read-out: inhibition against HsTIM
T1 construct: made in house; host or cells: Escherichia coli
T1 sequence (P60174 whole entry): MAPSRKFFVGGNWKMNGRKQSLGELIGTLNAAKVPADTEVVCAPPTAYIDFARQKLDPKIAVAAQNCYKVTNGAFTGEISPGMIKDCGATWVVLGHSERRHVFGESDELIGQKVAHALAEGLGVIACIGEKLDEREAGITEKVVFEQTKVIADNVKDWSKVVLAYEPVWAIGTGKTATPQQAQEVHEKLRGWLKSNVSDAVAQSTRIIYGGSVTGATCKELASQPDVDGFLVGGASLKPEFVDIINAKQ
Protocol: Expression and purification of proteins: FhTIM, RabbitTIM and HsTIM were expressed in Escherichia coli and purified as described in the literature[31],[37]. After purification, the enzyme, dissolved in 100 mM triethanolamine, 10 mM EDTA and 1 mM dithiothreitol (pH 8), was precipitated with ammonium sulfate (75% saturation) and stored at 4 °C. Before use, extensive dialysis against 100 mM triethanolamine/10 mM EDTA (pH 7.4) was performed. Protein concentration was determined by absorbance at 280 nm for FhTIM (ε = 33,460 M^−1cm^−1) and for RabbitTIM and HsTIM (ε = 33,460 M^−1cm^−1). Enzymatic activity was determined following the conversion of glyceraldehydes-3-phosphate into dihydroxyacetone phosphate in a coupled enzyme assay. The decrease in absorbance at 340 nm was followed in a multiplate reader VarioskanTM Flash Multimode Reader (Thermo ScientificTM, Waltham, MA, USA) at 38 °C. The reaction mixture (1 mL, pH 7.4) contained 100 mM triethanolamine, 10 mM EDTA, 0.2 mM NADH, 1 mM glyceraldehydes-3-phosphate and 0.9 units of α-glycerol phosphate dehydrogenase. The reaction was initiated by the addition of 5 ng/mL of the TIM of interest. For the inhibition studies, TIM was incubated at a concentration of 5 mg/mL in a buffer containing 100 mM triethanolamine, 10 mM EDTA, pH 7.4 and 10% of DMSO at 37 °C for 1 h. The mixture also contained the compounds, dissolved in DMSO, at the indicated concentrations. After 1 h, 10 µL were withdrawn and added to a final volume of 100 µL of the reaction mixture for the activity assay. The inhibition assay was performed in a 96-well microplate. None of the molecules tested here affected the activity of α-glycerol phosphate dehydrogenase, the enzyme used in the coupled assay. The IC50 value was taken as the concentration of drug needed to reduce the enzymatic activity to 50% by analysis using OriginLab8.5® sigmoidal regression (% of enzymatic activity vs. the logarithm of the compound concentration). The experiments were performed in triplicate in two independent experiments.

[2] = system: newly excysted juvenile (NEJ) F. hepatica; experiment: In vitro NEJ treatment; type: cell-based, Fasciola hepatica; settings: for IC50: Fasciola hepatica, NEJ
Protocol: F. hepatica metacercariae were acquired from DILAVE, MGAP, Uruguay. NEJ were obtained by in vitro excystement as previously described with minor modifications. Briefly, metacercariae were incubated with 1% sodium hypochlorite for 5 min at room temperature to remove the outer cyst wall and then washed exhaustively with PBS 200 U/mL Penicillin G sulfate, […] streptomycin sulfate, 500 ng/mL amphotericin B, 10 mM HEPES, counted and divided into groups of around 20 parasites that were transferred to 12 wells tissue culture plates. Parasites were maintained at 37 °C, 5% CO2 in modified Basch’s medium. At day 1, compounds were added at the indicated concentrations and 0.5% DMSO was added to control groups; each condition was tested in duplicate. NEJ behavior was monitored under a light microscope (Olympus BX41), every day each well was recorded for a minute in order to assess parasite motility and registered using the following score: 3- normally active; 2- reduced activity (sporadic movement); 1- immotile (dead)[48].

[3] = Figure 1, ranges of inhibitory activity, read-out: IC50 range
[4] = recombinant FhTIM, 1 h incubation with compound at 37 °C, read-out: IC50

Fasciola hepatica TIM (FhTIM), sequence (S4UI50 entry or part of it): as the sequence (S4UI50 entry or part of it) above

IC50 ([2]; incubation time 72 h) [µM] | SMILES | IC50 [1, 3] [µM] | IC50 ([1]; Table 1S, screening of 340 compounds in FhTIM, table head prints no unit, µM per b8/b9, read-out: IC50) [µM] | IC50 [1, 4] [µM] | Kd (FhTIM; 24 °C) [µM] | Kd (FhTIM; abstract) [µM] | inhibition at 100 µM (human (HsTIM)) [%] | IC50 ([2]; incubation time 4 h) [µM] | concentration of effect against juvenile and adult forms of F. hepatica ([2]; both forms, at 48 h)
– | Cc1ccc(-c2nsc(S(=O)(=O)c3ccc(C)cc3)n2)cc1 [Compound 187] | < 50 | < 25 | 4 ± 0.2 | 0.07 ± 0.01 | 0.066 | < 20 | 3 ± 0.5 | –
> 50 | CSc1nc2cc(Cl)c(Oc3cccc(Cl)c3Cl)cc2[nH]1 [Compound 1278, triclabendazole, reference compound] | < 50 | – | 7 ± 1 | 1000 | – | < 20 | – | more than 50 µM

Reference: paper PMC7018972, “Novel and selective inactivators of Triosephosphate isomerase with anti-trematode activity” (Scientific Reports, 2020)
